Earlier results on two compounds are cited in US7025979B2, “Male contraceptive formulation comprising norethisterone” (Schering AG, priority 2000, dated 2006).

The conditions of series [1]: in higher doses; literature (Merrigiola et al, Bebb et al).
Another series has as its system spermatogenesis. The following applies: use of the progestin; literature (Merrigiola et al, Bebb et al).

For the compound `CC(=O)O[C@]1(C(C)=O)CC[C@H]2[C@@H]3C=C(Cl)C4=CC(=O)[C@@H]5C[C@@H]5[C@]4(C)[C@H]3CC[C@@]21C` [cyproterone acetate], the “red blood cell count” value in series [1] was “significant decreases in red blood cell count”. In addition, the suppression of spermatogenesis result in the series with spermatogenesis is recorded as “ineffective in the suppression of spermatogenesis”.

As for `C#C[C@]1(O)CC[C@H]2[C@@H]3CCC4=CC(=O)CC[C@@H]4[C@H]3CC[C@@]21CC` [levonorgestrel], in series [1], the “red blood cell count” value is reported as “significant decreases in red blood cell count”.
